Test: Thermo Scientific Acclaim RSLC 120 C18, 100 × 2.1 mm, 2.2 µm, 30 °C, 0.2 to 0.48 mL/min, estimated dead time 1.1 min; A: 90% water + 10% methanol + 5 mM ammonium acetate; B: methanol + 5 mM ammonium acetate; gradient (min/%B) 0.1/1 3/39 14/99.9 16/99.9
Settings: stereoisomer not certain
With `Cc1occc1C(=O)Nc1ccccc1` the LC retention time was 7.54 min. With `CC(C)(C)NCC(O)COc1cccc2c1CC(O)C(O)C2` (stereo not given) the LC retention time was 5.12 min. `O=C(O)c1cc(-c2ccccc2)nc2ccccc12` gave an LC retention time of 5.89 min. For `c1ccc2[nH]c(-c3cscn3)nc2c1`, the LC retention time was 6.52 min. `CCNP(=S)(OC)OC(C)=CC(=O)OC(C)C` (stereo not given) showed an LC retention time of 9.75 min. `NC(=O)c1ncn(C2OC(CO)C(O)C2O)n1` (stereo not given) gave an LC retention time of 1.46 min. In the case of `CCCc1nc2c(C)cc(-c3nc4ccccc4n3C)cc2n1Cc1ccc(-c2ccccc2C(=O)O)cc1`, the LC retention time is reported as 11.2 min. For `CC(C(=O)O)c1cccc(Oc2ccccc2)c1` (stereo not given), the LC retention time was 6.79 min. Work on `O=S(=O)(O)c1ccc2ccccc2c1` yielded an LC retention time of 5.42 min. `CCC1(O)C(=O)OCc2c1cc1n(c2=O)Cc2cc3c(CN(C)C)c(O)ccc3nc2-1` (stereo not given) gave an LC retention time of 5.61 min. In the case of `O=C(Nc1ccccc1)Nc1cnns1`, the LC retention time is reported as 7.12 min. Work on `O=C(c1ccc(OCCN2CCCCC2)cc1)c1c(-c2ccc(O)cc2)sc2cc(O)ccc12` yielded an LC retention time of 8.86 min. For `CCCCC1C(=O)N(c2ccccc2)N(c2ccc(O)cc2)C1=O` (stereo not given), the LC retention time was 7.73 min. Work on `Cc1onc(-c2ccccc2)c1-c1ccc(S(N)(=O)=O)cc1` yielded an LC retention time of 7.46 min. Compound `CC[N+]1([O-])CCCC1CNC(=O)c1cc(S(=O)(=O)CC)c(N)cc1OC` (stereo not given) has an LC retention time of 4.81 min. `Cc1cccc(Nc2ccccc2C(=O)O)c1C` showed an LC retention time of 9.29 min. With `COCC(C)N(C(=O)C(=O)O)c1c(C)csc1C` (stereo not given) the LC retention time was 6.97 min. In the case of `CCN(CC)C(=O)Nc1ccc(OCC(O)CNC(C)(C)C)c(C(C)=O)c1` (stereo not given), the LC retention time is reported as 6.76 min. Compound `CC(C)c1nc(CN(C)C(=O)NC(C(=O)NC(Cc2ccccc2)CC(O)C(Cc2ccccc2)NC(=O)OCc2cncs2)C(C)C)cs1` (stereo not given) has an LC retention time of 12.5 min. With `CCC1(CC)C(=O)NC(=O)NC1=O` the LC retention time was 4.8 min. With `Nc1nc2c(ncn2CCC(CO)CO)c(=O)[nH]1` the LC retention time was 3.34 min. In the case of `CCC1OC(=O)C(C)C(OC2CC(C)(OC)C(O)C(C)O2)C(C)C(OC2OC(C)CC(N(C)C)C2O)C(C)(O)CC(C)C(=NOCOCCOC)C(C)C(O)C1(C)O` (stereo not given), the LC retention time is reported as 11.5 min. Work on `CC(C)C1(C)N=C(c2ncccc2C(=O)O)NC1=O` (stereo not given) yielded an LC retention time of 3.1 min. `CN(C)S(=O)(=O)Nc1ccccc1` showed an LC retention time of 7.14 min. Work on `CCCCCC(=O)c1ccc(O)cc1O` yielded an LC retention time of 10.6 min. With `CC12CCC3c4ccc(O)cc4CCC3C1CCC2O` (stereo not given) the LC retention time was 10.8 min. Work on `CC(C)(C)NCC(O)c1cc(O)cc(O)c1` (stereo not given) yielded an LC retention time of 3.48 min. `c1coc(-c2nc3ccccc3[nH]2)c1` showed an LC retention time of 6.8 min. With `Cc1ccc(NS(=O)(=O)N(C)C)cc1` the LC retention time was 7.23 min. In the case of `CC(=O)Nc1nnc(S(N)(=O)=O)s1`, the LC retention time is reported as 3.24 min. For `O=c1[nH]c(=O)[nH]c(=O)[nH]1`, the LC retention time was 1.34 min. `CC(C)(C)c1cc(C(C)(C)C)c(O)c(C(C)(C)C)c1` gave an LC retention time of 14.6 min. In the case of `CCC1(c2cccc(O)c2)CCCCN(C)C1` (stereo not given), the LC retention time is reported as 6.47 min. Compound `Cc1ccc2n[nH]nc2c1` has an LC retention time of 6.56 min. For `Oc1ccccc1-c1ccccc1`, the LC retention time was 9.09 min. Work on `CC12CCC3c4ccc(O)cc4CCC3C1CC(O)C2=O` (stereo not given) yielded an LC retention time of 8.42 min. In the case of `COc1ccc2cc(CCC(C)=O)ccc2c1`, the LC retention time is reported as 8.54 min. `C=C(c1ccc(C(=O)O)cc1)c1cc2c(cc1C)C(C)(C)CCC2(C)C` showed an LC retention time of 14.1 min. In the case of `CC12CCC(=O)C=C1C(O)CC1C2CCC2(C)C(O)CCC12` (stereo not given), the LC retention time is reported as 6.61 min. Work on `CCOC(=O)c1cn2nc(OP(=S)(OCC)OCC)cc2nc1C` yielded an LC retention time of 11.4 min. Compound `CCC(C(=O)O)C1CCC(C)C(C(C)C(O)C(C)C(=O)C(CC)C2OC3(C=CC(O)C4(CCC(C)(C5CCC(O)(CC)C(C)O5)O4)O3)C(C)CC2C)O1` (stereo not given) has an LC retention time of 14.7 min. In the case of `CC(=O)Nc1ccc(S(=O)(=O)Nc2cc(C)on2)cc1`, the LC retention time is reported as 4.33 min. With `CCNC1CC(C)S(=O)(=O)c2sc(S(N)(=O)=O)cc21` (stereo not given) the LC retention time was 4.63 min. In the case of `CCC(CC)OC1C=C(C(=O)O)CC(N)C1NC(C)=O` (stereo not given), the LC retention time is reported as 4.92 min. Compound `CC1=C(C(=O)Nc2ccccc2)S(=O)(=O)CCO1` has an LC retention time of 5.57 min. Compound `CCCC(C)C1(CC)C(=O)NC(=S)NC1=O` (stereo not given) has an LC retention time of 8.63 min. `CCCc1nn(C)c2c(=O)[nH]c(-c3cc(S(=O)(=O)N4CCN(C)CC4)ccc3OCC)nc12` gave an LC retention time of 9.5 min. With `CCOP(=O)(NC(C)C)Oc1ccc(SC)c(C)c1` (stereo not given) the LC retention time was 10.4 min. Compound `CC(C)CC(C)Nc1ccc(Nc2ccccc2)cc1` (stereo not given) has an LC retention time of 11.8 min. Work on `C=CCC1(C(C)CCC)C(=O)NC(=O)NC1=O` (stereo not given) yielded an LC retention time of 8.39 min. For `CCCN(CCC)S(=O)(=O)c1ccc(C(=O)O)cc1`, the LC retention time was 6.46 min. Compound `CC(C)N(C(=O)C(=O)O)c1ccccc1` has an LC retention time of 5.57 min. In the case of `CC12CCC3c4ccc(O)cc4CCC3C1CCC2=O` (stereo not given), the LC retention time is reported as 10.8 min. For `CCC1OC(=O)C(C)C(OC2CC(C)(OC)C(O)C(C)O2)C(C)C(OC2OC(C)CC(NC)C2O)C(C)(OC)CC(C)C(=O)C(C)C(O)C1(C)O` (stereo not given), the LC retention time was 11.3 min. Work on `CC1=CC(=O)CC2CCC3C4CCC(O)C4(C)CCC3C12C` (stereo not given) yielded an LC retention time of 13.8 min. In the case of `CC(=O)Nc1ccc(S(=O)(=O)Nc2ncccn2)cc1`, the LC retention time is reported as 3.76 min. For `CC1(C)CC1C(=O)NC(=CCCCCSCC(N)C(=O)O)C(=O)O` (stereo not given), the LC retention time was 4.91 min. For `CC1(C)SC2C(NC(=O)C(N)c3ccccc3)C(=O)N2C1C(=O)O` (stereo not given), the LC retention time was 4.46 min. In the case of `NS(=O)(=O)c1cc(C(=O)O)cc(N2CCCC2)c1Oc1ccccc1`, the LC retention time is reported as 6.04 min. For `CC12CCC3C(CCC4=C(O)C(=O)CCC43C)C1CCC2=O` (stereo not given), the LC retention time was 6.61 min. In the case of `CCCN(CCC)c1c([N+](=O)[O-])cc(S(N)(=O)=O)cc1[N+](=O)[O-]`, the LC retention time is reported as 10.2 min. `CC12CCC(=O)C=C1CCC1C2C(O)CC2(C)C(C(=O)CO)CCC12` (stereo not given) gave an LC retention time of 9.91 min. `CC(C)c1ccc(NC(=O)N(C)C)cc1` gave an LC retention time of 8.29 min. Compound `COC(=O)c1ccccc1S(=O)(=O)NC(=O)Nc1nc(C)nc(OC)n1` has an LC retention time of 4.51 min. Compound `CC(C)CC(CN)CC(=O)O` (stereo not given) has an LC retention time of 4.04 min. Work on `CCNC1CN(CCCOC)S(=O)(=O)c2sc(S(N)(=O)=O)cc21` (stereo not given) yielded an LC retention time of 5.74 min. For `CN(C)C(=O)Nc1ccccc1`, the LC retention time was 5.11 min. For `CCC1(CCC(C)C)C(=O)NC(=O)NC1=O`, the LC retention time was 7.9 min. With `CCNC(=O)NC(=O)C(C#N)=NOC` the LC retention time was 5.58 min. For `Cc1cc(C)cc(C(=O)N(NC(=O)c2ccc3c(c2C)CCCO3)C(C)(C)C)c1`, the LC retention time was 9.91 min.

Source: the RepoRT retention time repository
